Patent US10780082B2, “Macrocycle and composition comprising thereof” (Shenzhen TargetRx, Inc., priority 2016, dated 2020)

System: BaF3-NPM-ALK cells
Assay: Cytotoxicity experiment, ALK WT cells
Format: cell-based, murine
Conditions: two days incubation
Experimental: The cell line that can be used in the assay is Ba/F3, a murine pro-B cell line that has been stably transfected with the expression vector pClneo™ (Promega Corp., Madison Wis.) encoding NPM-ALK and subsequently G418-resistent cells were selected. The inhibitory activity of the compounds of Formula I can be determined as follows: BaF3-NPM-ALK cells (15000/well in a microtiter plate) were transferred to a 96-well microtiter plate. Test compounds (dissolved in DMSO) were then added in a series of concentrations (serial dilutions) with a final concentration of DMSO not exceeding 1% (v/v). […] The cell lysis was completed at room temperature within 60 minutes and the amount of Yopro bound to the DNA was determined by measurement using, for example, a CytoFluor II 96-well reader (PerSeptive Biosystems). IC50 can be determined by computer aided system using the following formula: IC50=[(ABS test−ABS start)/(ABS control−ABS start)]×100 wherein ABS was absorption.

| Compound | IC50 [nM] |
| --- | --- |
| C[C@H]1Oc2cc(cnc2N)-c2c(nn(C)c2C#N)CN(C)C(=O)c2ccc(F)cc21 [PF-06463922, reference compound] | < 1 |
| CC1Oc2cc(cnc2N)-c2c(nn(C)c2C#N)CN(C)C(=O)c2ccc(F)cc21 (racemic) [Compound 58] | < 1 |
| CC1Oc2cc(cnc2N)-c2c(nn(C)c2C#N)CN(C)C(=O)c2ccc(F)cc21 (racemic) [Compound 45] | < 1 |
| CC1Oc2cc(cnc2N)-c2c(nn(C)c2C#N)CN(C)C(=O)c2ccc(F)cc21 (racemic) [Compound 76] | < 1 |
| CC1Oc2cc(cnc2N)-c2c(nn(C)c2C#N)CN(C)C(=O)c2ccc(F)cc21 (racemic) [Compound 28] | < 1 |
| CC1Oc2cc(cnc2N)-c2c(nn(C)c2C#N)CN(C)C(=O)c2ccc(F)cc21 (single isomer, unassigned) [Compound 18] | < 1 |
| CC1Oc2cc(cnc2N)-c2c(nn(C)c2C#N)CN(C)C(=O)c2ccc(F)cc21 (racemic) [Compound 72] | < 1 |
